This passage reports Triple point temperature results from the NIST ThermoML archive (doi:10.1016/j.tca.2012.03.027).

The structures appear in SMILES notation. Numbers after ± are expanded uncertainties.

The conditions of the series: Crystal 2; DTA.

On to `CC1(C)[C@@H]2CC[C@@]1(C)C(=O)C2` [d-camphor], for which the Triple point temperature is recorded as 367 ± 3 K. Next, `CC12CCC(CC1=O)C2(C)C` (configuration not stated) [1,7,7-trimethylbicyclo[2.2.1]-2-heptanone]: 362 ± 4 K.
